Source: patent US6417233B1, “Ubiguinone-containing composition suitable for promoting enhanced intramitochondrial transportation of ubiguinones and methods of using same” (Sigma-Tau HealthScience S.p.A., priority 1998, dated 2002)

System: normal human photoreceptors cells
Assay: In vitro study of photoreceptor membranes exposed to oxido-reductive stress
Type: cell-based
Settings: exposure to strong electron donor substances; result in words
Excerpt: The mitochondrial membranes are more basophilic, and they contain more unsaturated lipids than the disc membranes of the outer segments.

With chlorpromazines the disc membranes was “disrupted the disc membranes in dose dependent manner” and the “structure of mitochondrial membranes” value was “slighly altered”.
